The test system of series [1] is human pulmonary tumors. Particulars: cited from earlier work.
Series [2] has as its system advanced ovarian adenocarcinoma. Particulars: concurrent use with cyclophosphamide, methotrexate and 5-fluorouracil; cited from earlier work.
Series [3] deals with human renal tumors. Particulars: cited from earlier work.
In series [4] the test system is N.C.I. animal anti-tumor screening systems. Particulars: in vivo; cited from earlier work.
The test system of series [5] is human disease. The note with it: in vivo; cited from earlier work.
Series [6] relates to ovarian cancer. Particulars: clinical; cited from earlier work.
The test system of series [7] is A-204 rhabdomysarcoma. In words: Inhibition of colony formation by human tumor cell line A-204 (rhabdomysarcoma), long-term exposure. Particulars: Homo sapiens, A204, 216 h, 9 days, read-out: Percent survival (number of colonies in test dishes to colonies in control dishes times 100). It counts as cell-based. As for the experimental part: (§1) Cytotoxic activity of O-HMM against in vitro human tumor cells was measured as inhibition of colony formation and the results expressed as a ratio of the number of colonies in test dishes to number of control dishes, times 100 (Table 4).
(§2) Inhibition of colony formation by human tumor
(§3) ^a Percent survival as measured by the number of colonies in test

The test system of series [8] is A-549 lung carcinoma. In words: Inhibition of colony formation by human tumor cell line A-549 (lung carcinoma), long-term exposure. It is filed as cell-based. Particulars: Homo sapiens, A549, 216 h, 9 days, read-out: Percent survival (number of colonies in test dishes to colonies in control dishes times 100). As for the experimental part: as §1, §2, §3
Series [9] relates to A-101D melanoma. As to the kind of experiment: Inhibition of colony formation by human tumor cell line A-101D (melanoma), long-term exposure. It counts as cell-based. The note with it: Homo sapiens, A101D, 216 h, 9 days, read-out: Percent survival (number of colonies in test dishes to colonies in control dishes times 100). As for the experimental part: as §1, §2, §3
Series [10] has as its system A-498 renal carcinoma. In words: Inhibition of colony formation by human tumor cell line A-498 (renal carcinoma), long-term exposure. It counts as cell-based. Particulars: Homo sapiens, A498, 216 h, 9 days, read-out: Percent survival (number of colonies in test dishes to colonies in control dishes times 100). The procedure:
as §1, §2, §3

The conditions of series [11]: vs HMM; background statement; cited from earlier work.
[12] abbreviates: 150 ug/ml, solubility may be limiting.
[13] abbreviates: 175 ug/ml, solubility may be limiting.
Setting [14] is: 225 ug/ml, solubility may be limiting.

Counter-ions that a name gives are not always drawn.

The values below come from patent US4576945A, “Hexaalkylmelamine-amino-oxy compounds” (priority 1984, dated 1986).

Consider `CN(C)c1nc(N(C)C)nc(N(C)C)n1` [HMM, hexamethylmelamine], for which the “activity against human pulmonary tumors in mice” value in series [1] was “active”. The “effectiveness against advanced ovarian adenocarcinoma” value in series [2] is “effective against advanced ovarian adenocarcinoma”. In series [3], the “activity against human renal tumors in mice” value was “active”. Besides, in series [4], the “activity in most N.C.I. animal anti-tumor screening systems” value is given as “no demonstrated activity”. In addition, the “activity against human disease” value in series [5] is “demonstrated activity against human disease”. Besides, the “activity against ovarian cancer” value in [6] is “significant activity against ovarian cancer”.

For the compound `CN(C)c1nc(N(C)C)nc(N(C)C)n1` [HMM.HCl, reference compound], the viability at 20 µg/mL in [7] (20 ug/ml) amounted to 104 ± 12%; in series [8] (20 ug/ml), 93 ± 4%; in series [9] (20 ug/ml), 101 ± 4%; in series [10] (20 ug/ml), 97 ± 6%. The viability at 25 µg/mL in series [7] (25 ug/ml) came out at 85 ± 8%; in [8] (25 ug/ml), 91 ± 12%; in series [9] (25 ug/ml), 98 ± 11%; in series [10] (25 ug/ml) it was 90 ± 12%. For the same compound, the viability at 50 µg/mL in series [7] (50 ug/ml) turned out to be 78 ± 15%; in [8] (50 ug/ml) it was 95 ± 8%; in series [9] (50 ug/ml), 92 ± 13%; in [10] (50 ug/ml), 75 ± 8%. The viability at 75 µg/mL in [7] (75 ug/ml) was 62 ± 24%; in series [8] (75 ug/ml) it was 87 ± 11%; in series [9] (75 ug/ml) it was 73 ± 5%; in [10] (75 ug/ml), 61 ± 12%. For the same compound, the viability at 100 µg/mL is 55 ± 27% in series [7] (100 ug/ml), 86 ± 9% in [8] (100 ug/ml), 53 ± 11% in series [9] (100 ug/ml) and 50 ± 12% in series [10] (100 ug/ml). The viability at 150 µg/mL in series [7] (setting [12]) is 35 ± 29%; in series [8] (setting [12]), 74 ± 17%; in series [9] (setting [12]) it was 37 ± 8%; in series [10] (setting [12]), 42 ± 18%. The viability at 175 µg/mL was determined as 38 ± 26% in series [7] (setting [13]), 59 ± 23% in series [8] (setting [13]), 38 ± 9% in series [9] (setting [13]) and 43 ± 25% in [10] (setting [13]). For the same compound, the viability at 200 µg/mL was determined as 38 ± 21% in series [7] (200 ug/ml), 61 ± 19% in series [8] (200 ug/ml), 33 ± 8% in [9] (200 ug/ml) and 42 ± 19% in series [10] (200 ug/ml). Moreover, the viability at 225 µg/mL is 40 ± 28% in [7] (setting [14]), 29 ± 6% in series [9] (setting [14]) and 41 ± 8% in series [10] (setting [14]). In addition, the viability at 10 µg/mL in [8] (10 ug/ml) was found to be 95 ± 5%.

For `CNc1nc(N(C)C)nc(N(C)C)n1` [pentamethylmelamine], the “solubility compared with HMM” value in [11] was “more soluble”.
